In the NIST ThermoML archive (doi:10.1021/je0502142):

What was measured:
[1] = Liquid; for mass density / speed of sound: 298.15 K; for mass density: 101.33 kPa, Vibrating tube method; for speed of sound: Sing-around technique in a fixed-path interferometer
[2] = refractive index (Na D-line) (dimensionless); conditions: 298.15 K; 101.33 kPa; Liquid; Standard Abbe refractometry
[3] = xn = mol fraction of the nth substance listed; conditions: 298.15 K, 101.3 kPa, Liquid; for speed of sound: Sing-around technique in a fixed-path interferometer
[4] = refractive index (Na D-line) (dimensionless); xn = mol fraction of the nth substance listed; conditions: 298.15 K, 101.3 kPa, Liquid, Standard Abbe refractometry

CCC(C)CO (stereo unspecified) [2-methyl-1-butanol]
Conditions | mass density [kg/m3] | refractive index | speed of sound [m/s]
[1] | 814.87 | – | 1253.3
[2] | – | 1.40872 | –

Conditions | vapor or sublimation pressure [kPa]
[1], 401.93 K | 101.3

CCC(C)CO (stereo unspecified) [2-methyl-1-butanol] + CCCO
Conditions | mass density, [3] [kg/m3] | refractive index, [4] | speed of sound, [3] [m/s]
x2 = 0.051 | 814.37 | 1.40768 | 1252.4
x2 = 0.1 | 813.84 | 1.40677 | 1250.6
x2 = 0.151 | 813.28 | 1.40573 | 1248.7
x2 = 0.2 | 812.71 | 1.40478 | 1246.8
x2 = 0.251 | 812.09 | 1.4038 | 1244.7
x2 = 0.3 | 811.46 | 1.40272 | 1242.8
x2 = 0.351 | 810.8 | 1.40164 | 1240.5
x2 = 0.408 | 810.04 | 1.40039 | 1238
x2 = 0.45 | 809.44 | 1.39934 | 1236.1
x2 = 0.501 | 808.69 | 1.39815 | 1233.7
x2 = 0.55 | 807.94 | 1.39697 | 1231.3
x2 = 0.6 | 807.14 | 1.39556 | 1228.8
x2 = 0.65 | 806.3 | 1.39422 | 1226.2
x2 = 0.7 | 805.38 | 1.39279 | 1223.2
x2 = 0.75 | 804.5 | 1.39133 | 1220.7
x2 = 0.801 | 803.53 | 1.38982 | 1217.6
x2 = 0.85 | 802.6 | 1.38815 | 1214.8
x2 = 0.899 | 801.61 | 1.38658 | 1211.8
x2 = 0.949 | 800.64 | 1.38483 | 1208.7

CC(C)CCO [3-methylbutan-1-ol]
Conditions | mass density [kg/m3] | refractive index | speed of sound [m/s]
[1] | 806.78 | – | 1238.8
[2] | – | 1.40515 | –

Conditions | vapor or sublimation pressure [kPa]
[1], 404.27 K | 101.3

CC(C)CCO [3-methylbutan-1-ol] + CCCO
Conditions | mass density, [3] [kg/m3] | refractive index, [4] | speed of sound, [3] [m/s]
x2 = 0.05 | 806.4 | 1.40447 | 1234.4
x2 = 0.1 | 806.12 | 1.40366 | 1233.5
x2 = 0.15 | 805.83 | 1.40281 | 1232.3
x2 = 0.201 | 805.54 | 1.402 | 1231.1
x2 = 0.251 | 805.25 | 1.40115 | 1230
x2 = 0.3 | 804.97 | 1.4002 | 1228.8
x2 = 0.351 | 804.66 | 1.39919 | 1227.5
x2 = 0.4 | 804.37 | 1.3983 | 1226.2
x2 = 0.45 | 804.07 | 1.39734 | 1224.9
x2 = 0.5 | 803.75 | 1.39621 | 1223.4
x2 = 0.551 | 803.41 | 1.39507 | 1222
x2 = 0.6 | 803.08 | 1.39396 | 1220
x2 = 0.65 | 802.72 | 1.39278 | 1218.5
x2 = 0.7 | 802.34 | 1.39148 | 1217
x2 = 0.749 | 801.96 | 1.39035 | 1215.3
x2 = 0.799 | 801.55 | 1.38898 | 1213.6
x2 = 0.85 | 801.13 | 1.38757 | 1211.8
x2 = 0.9 | 800.69 | 1.3861 | 1210
x2 = 0.95 | 800.22 | 1.38458 | 1208.2

CCCO [propan-1-ol]
Conditions | mass density [kg/m3] | refractive index | speed of sound [m/s]
[1] | 799.75 | – | 1205.7
[2] | – | 1.38304 | –

Conditions | vapor or sublimation pressure [kPa]
[1], 370.29 K | 101.3
